We go through 29 compounds from patent US20240150293A1, “SPIROCYCLOHEXANE DERIVATIVES, PHARMACEUTICAL COMPOSITIONS CONTAINING THEM AND THEIR USES AS ANTI-APOPTOTIC INHIBITORS” (LES LABORATOIRES SERVIER, priority 2021, published 2024).

Broadly, the Ki is the equilibrium dissociation constant of an inhibitor or competing ligand from its target.

The target of the experiment is Mcl-1 protein (UniProtKB Q07820) (Homo sapiens (Human), UniProt Q07820). In words: Inhibition of Mcl-1 by the fluorescence polarisation assay (Example A, Method A). In kind it is binding. As to conditions: fluorescence polarization assay. In outline: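 Protein (5 nM) and fluorescein-tagged peptide tracer (1 nM) incubated with 11-point compound series for 2 h at room temperature in HEPES/NaCl/Tween 20 buffer, pH 7.4, 5% DMSO. Displacement read as decrease in polarisation; IC50 fitted by 4-parameter logistic, converted to Ki (cKi or eKi).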
Mcl-1 protein, sequence (Q07820 whole entry): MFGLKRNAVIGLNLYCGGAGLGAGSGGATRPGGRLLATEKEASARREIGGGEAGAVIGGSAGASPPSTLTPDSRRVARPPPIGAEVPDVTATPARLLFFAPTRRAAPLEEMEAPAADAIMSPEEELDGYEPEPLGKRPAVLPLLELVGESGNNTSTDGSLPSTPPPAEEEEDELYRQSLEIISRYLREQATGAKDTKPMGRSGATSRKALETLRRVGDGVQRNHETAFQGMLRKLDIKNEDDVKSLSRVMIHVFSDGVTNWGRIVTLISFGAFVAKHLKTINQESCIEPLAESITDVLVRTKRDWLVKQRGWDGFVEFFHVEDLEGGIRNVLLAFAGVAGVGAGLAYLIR
Take `COc1cc(Cl)cc(C2=Cc3ccccc3[C@]23CC[C@@](Nc2cccc(Cl)c2)(C(=O)O)CC3)c1` [Example 331, (1s,4s)-4-(3-chloroanilino)-2′-(3-chloro-5-methoxyphenyl)spiro[cyclohexane-1,1′-indene]-4-carboxylic acid]: the Ki was determined as 2.18 µM.

In the case of `CC1=Cc2ccccc2[C@]12CC[C@@](Nc1cccc(Cl)c1)(C(=O)O)CC2` [Example 143, (1r,4r)-4-(3-chloroanilino)-2′-methylspiro[cyclohexane-1,1′-indene]-4-carboxylic acid], the Ki was found to be 0.182 µM.

For `O=C(O)[C@]1(Nc2cccc(Cl)c2)CC[C@]2(CC1)C(Br)=Cc1ccc(F)cc12` [Example 139, (1s,4s)-2′-bromo-4-(3-chloroanilino)-6′-fluorospiro[cyclohexane-1,1′-indene]-4-carboxylic acid], the Ki was 0.265 µM.

For `Cc1ccc(C2Cc3ccccc3C23CCC(Nc2cccc(Br)c2)(C(=O)O)CC3)s1` (single isomer, unassigned) [Example 262, 4-(3-bromoanilino)-2′-(5-methylthiophen-2-yl)-2′,3′-dihydrospiro[cyclohexane-1,1′-indene]-4-carboxylic acid], the Ki came out at 0.236 µM.

Turning to `CC1(C)CCc2ncnc(OCCCC3Cc4ccccc4[C@]34CC[C@@](Nc3cccc(Cl)c3)(C(=O)O)CC4)c21` (some centres unmarked) [Example 466, (1r,4r)-4-(3-chloroanilino)-2′-{3-[(5,5-dimethyl-6,7-dihydro-5H-cyclopenta[d]pyrimidin-4-yl)oxy]propyl}-2′,3′-dihydrospiro[cyclohexane-1,1′-indene]-4-carboxylic acid], the Ki came out at 0.0566 µM.

As for `Cc1ccc(C2Cc3ccccc3C23CCC(Nc2cccc(Br)c2)(C(=O)O)CC3)cc1` (centres unmarked) [Example 216, 4-(3-bromoanilino)-2′-(4-methylphenyl)-2′,3′-dihydrospiro[cyclohexane-1,1′-indene]-4-carboxylic acid], the Ki was determined as 1.74 µM.

As for `CCc1ccc2c(c1)[C@]1(CC[C@](Nc3cccc(Br)c3)(C(=O)O)CC1)C(=O)N2C` [Example 8, (1r,4r)-4-(3-bromoanilino)-5′-ethyl-1′-methyl-2′-oxo-1′,2′-dihydrospiro[cyclohexane-1,3′-indole]-4-carboxylic acid], the Ki came to 22.5 µM.

For the compound `O=C(O)[C@]1(Nc2cccc(Cl)c2)CC[C@]2(CC1)C(c1cccc(OCC3CC3)c1)=Cc1ccccc12` [Example 339, (1s,4s)-4-(3-chloroanilino)-2′-[3-(cyclopropylmethoxy)phenyl]spiro[cyclohexane-1,1′-indene]-4-carboxylic acid], the Ki is 0.154 µM.

`COc1ccc2c(c1)[C@]1(CC[C@](Nc3cccc(Br)c3)(C(=O)O)CC1)C(Cc1ccccc1)C2` (some centres unmarked) [Example 126, (1s,4s)-2′-benzyl-4-(3-bromoanilino)-6′-methoxy-2′,3′-dihydrospiro[cyclohexane-1,1′-indene]-4-carboxylic acid]: the Ki was 9.15 µM.

On to `O=C(O)C1(Nc2cccc(Br)c2)CCC2(CC1)c1ccccc1CC2c1nccs1` (single isomer, unassigned) [Example 223, 4-(3-bromoanilino)-2′-(1,3-thiazol-2-yl)-2′,3′-dihydrospiro[cyclohexane-1,1′-indene]-4-carboxylic acid], for which the Ki is 14.3 µM.

Take `CN(CCc1ccccc1)C(=O)C1Cc2ccccc2[C@]12CC[C@@](Nc1cccc(Cl)c1)(C(=O)O)CC2` (single isomer, unassigned) [Example 408, (1r,4r)-4-(3-chloroanilino)-2′-[methyl(2-phenylethyl)carbamoyl]-2′,3′-dihydrospiro[cyclohexane-1,1′-indene]-4-carboxylic acid]: the Ki is 4.27 µM.

For the compound `CC(O)c1ccc2c(c1)[C@]1(CC[C@@](Nc3cccc(Cl)c3)(C(=O)O)CC1)C(Br)=C2` (some centres unmarked) [Example 133, (1s,4s)-2′-bromo-4-(3-chloroanilino)-6′-(1-hydroxyethyl)spiro[cyclohexane-1,1′-indene]-4-carboxylic acid], the Ki came to 0.0576 µM.

`Cc1ccc(C2Cc3ccccc3C23CCC(Nc2cccc(Br)c2)(C(=O)O)CC3)s1` (single isomer, unassigned) [Example 263, 4-(3-bromoanilino)-2′-(5-methylthiophen-2-yl)-2′,3′-dihydrospiro[cyclohexane-1,1′-indene]-4-carboxylic acid]: the Ki is 5.02 µM.

As for `COCCOc1cccc(N[C@]2(C(=O)O)CC[C@@]3(CC2)C(Br)=Cc2ccccc23)n1` [Example 80, (1s,4s)-2′-bromo-4-{[6-(2-methoxyethoxy)pyridin-2-yl]amino}spiro[cyclohexane-1,1′-indene]-4-carboxylic acid], the Ki was found to be 11.8 µM.

For `CN1CC2(CCC(Nc3cccc(Br)c3)(C(=O)O)CC2)c2ccccc21` (centres unmarked) [Example 4, 4-(3-bromoanilino)-1′-methyl-1′,2′-dihydrospiro[cyclohexane-1,3′-indole]-4-carboxylic acid], the Ki is 5.95 µM.

Take `CN(Cc1ccccc1)CC1=Cc2ccccc2[C@]12CC[C@@](Nc1cccc(Cl)c1)(C(=O)O)CC2` [Example 184, (1s,4s)-2′-{[benzyl(methyl)amino]methyl}-4-(3-chloroanilino)spiro[cyclohexane-1,1′-indene]-4-carboxylic acid]: the Ki is 1.23 µM.

`O=C(O)[C@]1(Nc2cccc(Cl)c2)CC[C@@]2(CC1)c1ccccc1CC2c1ccc(Oc2ccncc2)cc1` (single isomer, unassigned) [Example 364, (1r,4r)-4-(3-chloroanilino)-2′-{4-[(pyridin-4-yl)oxy]phenyl}-2′,3′-dihydrospiro[cyclohexane-1,1′-indene]-4-carboxylic acid]: the Ki came out at 0.459 µM.

With `O=C(O)[C@]1(Nc2cccc(Cl)c2)CC[C@@]2(CC1)c1ccccc1CC2CCCOc1ccnc2c1CCC2F` (some centres unmarked) [Example 476, (1r,4r)-4-(3-chloroanilino)-2′-{3-[(7-fluoro-6,7-dihydro-5H-cyclopenta[b]pyridin-4-yl)oxy]propyl}-2′,3′-dihydrospiro[cyclohexane-1,1′-indene]-4-carboxylic acid], the Ki turned out to be 0.169 µM.

As to `O=C(O)[C@]1(Nc2cccc(Cl)c2)CC[C@@]2(CC1)c1ccccc1CC2c1ccc(Cl)cc1` (single isomer, unassigned) [Example 319, (1r,4r)-4-(3-chloroanilino)-2′-(4-chlorophenyl)-2′,3′-dihydrospiro[cyclohexane-1,1′-indene]-4-carboxylic acid], the Ki was determined as 0.906 µM.

In the case of `CN(CCc1ccncc1)C(=O)C1Cc2ccccc2[C@]12CC[C@@](Nc1cccc(Cl)c1)(C(=O)O)CC2` (single isomer, unassigned) [Example 404, (1r,4r)-4-(3-chloroanilino)-2′-{methyl[2-(pyridin-4-yl)ethyl]carbamoyl}-2′,3′-dihydrospiro[cyclohexane-1,1′-indene]-4-carboxylic acid], the Ki was 7.78 µM.

In the case of `CC1N(C=O)c2ccccc2[C@]12CC[C@](Nc1cccc(Br)c1)(C(=O)O)CC2` (some centres unmarked) [Example 26, (1r,4r)-4-(3-bromoanilino)-1′-formyl-2′-methyl-1′,2′-dihydrospiro[cyclohexane-1,3′-indole]-4-carboxylic acid], the Ki came to 42.8 µM.

For the compound `O=C(O)[C@]1(Nc2cccc(Cl)c2)CC[C@@]2(CC1)c1ccccc1CC2CCCOc1ccnc2c1CCCC2O` (some centres unmarked) [Example 474, (1r,4r)-4-(3-chloroanilino)-2′-{3-[(8-hydroxy-5,6,7,8-tetrahydroquinolin-4-yl)oxy]propyl}-2′,3′-dihydrospiro[cyclohexane-1,1′-indene]-4-carboxylic acid], the Ki is 0.096 µM.

As for `CC1N(C)c2ccccc2[C@]12CC[C@](Nc1cccc(Br)c1)(C(=O)O)CC2` (some centres unmarked) [Example 23, (1r,4r)-4-(3-bromoanilino)-1′,2′-dimethyl-1′,2′-dihydrospiro[cyclohexane-1,3′-indole]-4-carboxylic acid], the Ki came out at 1.08 µM.

For `O=C(O)[C@]1(Nc2cccc(Cl)c2)CC[C@]2(CC1)C(c1ccsc1)=Cc1ccccc12` [Example 330, (1s,4s)-4-(3-chloroanilino)-2′-(thiophen-3-yl)spiro[cyclohexane-1,1′-indene]-4-carboxylic acid], the Ki stood at 2.12 µM.

Take `COc1cc(OC)cc(C2=Cc3ccccc3C23CCC(Nc2cccc(Br)c2)(C(=O)O)CC3)c1` (single isomer, unassigned) [Example 237, 4-(3-bromoanilino)-2′-(3,5-dimethoxyphenyl)spiro[cyclohexane-1,1′-indene]-4-carboxylic acid]: the Ki worked out at 89 µM.

Regarding `COc1ccccc1CCOCC1=Cc2ccccc2[C@]12CC[C@@](Nc1cccc(Cl)c1)(C(=O)O)CC2` [Example 414, (1s,4s)-4-(3-chloroanilino)-2′-{[2-(2-methoxyphenyl)ethoxy]methyl}spiro[cyclohexane-1,1′-indene]-4-carboxylic acid], the Ki worked out at 0.312 µM.

With `O=C(O)[C@]1(Nc2cccc(Cl)c2)CC[C@]2(CC1)C(C#Cc1ccccn1)=Cc1ccccc12` [Example 170, (1s,4s)-4-(3-chloroanilino)-2′-[(pyridin-2-yl)ethynyl]spiro[cyclohexane-1,1′-indene]-4-carboxylic acid], the Ki was found to be 1.92 µM.

As to `O=C(NCCc1ccncc1)C1=Cc2ccccc2[C@]12CC[C@@](Nc1cccc(Cl)c1)(C(=O)O)CC2` [Example 402, (1s,4s)-4-(3-chloroanilino)-2′-{[2-(pyridin-4-yl)ethyl]carbamoyl}spiro[cyclohexane-1,1′-indene]-4-carboxylic acid], the inhibition constant Ki stood at 18.8 µM.

As to `O=C(O)[C@]1(Nc2cccc(Cl)c2)CC[C@@]2(CC1)c1ccccc1CC2[C@H]1C[C@@H]1COc1cccnc1` (single isomer, unassigned) [Example 116, (1r,4r)-4-(3-chloroanilino)-2′-[(1R*,2S*)-2-{[(pyridin-3-yl)oxy]methyl}cyclopropyl]-2′,3′-dihydrospiro[cyclohexane-1,1′-indene]-4-carboxylic acid], the Ki worked out at 0.882 µM.
